Laboratory results published in US20130097726A1, “METHODS AND COMPOSITIONS FOR WEED CONTROL” (priority 2011, published 2013).

Tested on: Glyphosate-sensitive Palmer amaranth (A. palmeri R-22) plants
Experiment: Topical ssDNA HPPD oligonucleotide mixture with or without mesotrione or atrazine: plant height / growth reduction
Format: in vivo, Amaranthus palmeri
Settings: twelve days after treatment
Description: Glyphosate-sensitive Palmer amaranth (A. palmeri R-22) plants were grown in the greenhouse (30/20 C day/night T; 14 hour photoperiod) in 4 inch square pots containing Sun Gro® Redi-Earth and 3.5 kg/cubic meter Osmocote® 14-14-14 fertilizer. Palmer amaranth plants at 5 to 10 cm in height were pre-treated with a mixture of eight 8 short (21-22mer) single-strand antisense oligo DNA polynucleotides (ssDNAas) targeting HPPD shown in Table 2 as HPPD_OLIGO1-8 (SEQ ID NO: 1083-1090, respectively) at two concentrations, 16 nmol and 80 nmol, formulated in 10 millimolar sodium phosphate buffer (pH 6.8) containing 2% ammonium sulfate and 0.5% Silwet L-77. Plants were treated manually by pipetting 10 μL of polynucleotide solution on four fully expanded mature leaves, for a total of 40 microliters of solution per plant. Twenty-four and forty-eight hours later, the plants were treated with mesotrione (Callisto®, 4 lb ai per gallon; HPPD inhibitor) at 13 g ai/ha, or atrazine (Aatrex® Nine-0®, 90% w/w ai; Photosystem II inhibitor) at 170 g ai/ha using a track-sprayer equipped with a 9501E nozzle and calibrated to deliver 93 liters of solution per hectare. […] Plant height was determined just before ssDNA treatment and at intervals upto twelve days after herbicide treatments to determine effect of the oligonucleotide and herbicide treatments.

CCNc1nc(Cl)nc(NC(C)C)n1 [atrazine]
control (growth reduction) (atrazine alone 170 g ai/ha): 29%

CS(=O)(=O)c1ccc(C(=O)C2C(=O)CCCC2=O)c([N+](=O)[O-])c1 [mesotrione]
control (growth reduction) (mesotrione alone 13 g ai/ha): 48%
